Experimental data taken from US20230115208A1, “RING-FUSED THIAZOLINO 2-PYRIDONES, METHODS FOR PREPARATION THEREOF AND THEIR USE IN THE TREATMENT AND/OR PREVENTION OF TUBERCULOSIS” (QURETECH BIO AB, priority 2016, published 2023).

Tested on: Mycobacterium tuberculosis Erdman
Experiment: Biofilm inhibition of Mycobacterium tuberculosis (ocular inspection)
Assay type: cell-based
Details: for inhibition at 10 µM / inhibition at 25 µM / inhibition at 50 µM / inhibition at 100 µM: biofilm inhibition, average of three or more measurements (100/50/0% scoring); for inhibition at 10 µM: read-out: Average % Inhibition at 10 μM; for inhibition at 25 µM: read-out: Average % Inhibition at 25 μM; for minimal effective concentration: concentration at which full biofilm inhibition took place, replicate determinations in one cell

Row | SMILES | inhibition at 10 µM | inhibition at 25 µM | inhibition at 50 µM | minimal effective concentration | inhibition at 100 µM
1 | O=C(O)[C@@H]1CSc2c(C3CC3)c(Cc3cc4ccccc4s3)cc(=O)n21 [Example 2, (3R)-7-Cyclopropyl-4-oxo-6-{(7-thiabicyclo[4.3.0]nona-1,3,5,8-tetraen-8-yl)methyl}-1-thia-3a-aza-3-indancarboxylic acid] | 63% | 100% | 75% | 25 µM | 
2 | O=C(O)[C@@H]1CSc2c(C3CC3)c(Cc3ccc(F)c4ccccc34)cc(=O)n21 [Example 3, (3R)-7-Cyclopropyl-6-[(4-fluoro-1-naphthyl)methyl]-4-oxo-1-thia-3a-aza-3-indancarboxylic acid] | 100% | 100% | 100% | 50 µM | 
3 | Cc1ccc(Cc2cc(=O)n3c(c2C2CC2)SC[C@H]3C(=O)O)c2ccccc12 [Example 4, (3R)-7-Cyclopropyl-6-[(4-methyl-1-naphthyl)methyl]-4-oxo-1-thia-3a-aza-3-indancarboxylic acid] | 100% | 100% | 100% | 25 µM | 
4 | O=C(O)[C@H]1CSc2c(C3CC3)c(Cc3cccc4ccccc34)cc(=O)n21 [Example 5, (3S)-7-Cyclopropyl-6-[(1-naphthyl)methyl]-4-oxo-1-thia-3a-aza-3-indancarboxylic acid] | 100% | 100% | 100% | 5 µM | 
5 | O=C(O)c1c(-c2ccsc2)sc2c(C3CC3)c(Cc3cccc4ccccc34)cc(=O)n12 [Example 6, 5-Cyclopropyl-4-[(1-naphthyl)methyl]-2-oxo-8-(3-thienyl)-7-thia-1-azabicyclo[4.3.0]nona-3,5,8-triene-9-carboxylic acid] | 50% | 88% | 100% | 30 µM | 100%
6 | O=C(O)[C@@H]1CSc2c(C3CC3)c(COc3cccc4ccccc34)cc(=O)n21 [Example 7, (3R)-7-Cyclopropyl-6-[(1-naphthyloxy)methyl]-4-oxo-1-thia-3a-aza-3-indancarboxylic acid] | 50% | 100% | 100% | 25 µM | 
7 | Cc1ccc(F)c(Cc2cc(=O)n3c(c2C2CC2)SC[C@H]3C(=O)O)c1 [Example 8, (3R)-7-Cyclopropyl-6-[(2-fluoro-5-methyl-phenyl)methyl]-4-oxo-1-thia-3a-aza-3-indancarboxylic acid] | 75% | 63% | 75% | 25 µM | 
8 | Cc1cccc(Cc2cc(=O)n3c(c2C2CC2)SC[C@H]3C(=O)O)c1C [Example 9, (3R)-7-Cyclopropyl-4-oxo-6-[(2,3-xylyl)methyl]-1-thia-3a-aza-3-indancarboxylic acid] | 50% | 87% | 87% | 25 µM | 
9 | Cc1c(Cc2cccc3ccccc23)cc(=O)n2c1SC[C@H]2C(=O)O [Example 10, (3R)-7-Methyl-6-[(1-naphthyl)methyl]-4-oxo-1-thia-3a-aza-3-indancarboxylic acid] | 69% | 100% | 100% |  | 
10 | CON(C)C(=O)[C@@H]1CSc2c(C3CC3)c(Cc3cccc4ccccc34)cc(=O)n21 [Example 11, (N-Methylmethoxyamino){(3R)-7-cyclopropyl-6-[(1-naphthyl)methyl]-4-oxo-1-thia-3a-aza-3-indanyl}formaldehyde] | 75% | 38% | 88% |  | 
11 | O=c1cc(Cc2cccc3ccccc23)c(C2CC2)c2n1[C@H](c1nnn[nH]1)CS2 [Example 12, (3R)-7-Cyclopropyl-6-[(1-naphthyl)methyl]-3-(1H-1,2,3,4-tetrazol-5-yl)-1-thia-3a-aza-4-indanone] | 12% | 50% | 87% |  | 
12 | O=C(O)c1c(-c2ccccc2)sc2c(C3CC3)c(Cc3cccc4ccccc34)cc(=O)n12 [Example 13, 5-Cyclopropyl-4-[(1-naphthyl)methyl]-2-oxo-8-phenyl-7-thia-1-azabicyclo[4.3.0]nona-3,5,8-triene-9-carboxylic acid] | 62% | 75% | 100% | 50 µM | 
13 | Cc1cccc(-c2sc3c(C4CC4)c(Cc4cccc5ccccc45)cc(=O)n3c2C(=O)O)c1 [Example 14, 5-Cyclopropyl-4-[(1-naphthyl)methyl]-2-oxo-8-(m-tolyl)-7-thia-1-azabicyclo[4.3.0]nona-3,5,8-triene-9-carboxylic acid] | 0% | 88% | 100% |  | 
14 | O=C(O)[C@@H]1CSc2c(C3CC3)c(Cc3ccc4ccccc4c3)cc(=O)n21 [Example 15, (3R)-7-Cyclopropyl-6-[(2-naphthyl)methyl]-4-oxo-1-thia-3a-aza-3-indancarboxylic acid] | 87% | 100% | 100% | 50 µM | 
15 | O=c1cc(Cc2cccc3ccccc23)c(C2CC2)c2n1[C@H](CO)CS2 [Example 16, (3R)-7-Cyclopropyl-3-(hydroxymethyl)-6-[(1-naphthyl)methyl]-1-thia-3a-aza-4-indanone] | 25% | 62% | 100% |  | 
16 | O=C(O)[C@@H]1CSc2c(-c3cccs3)c(Cc3cccc4ccccc34)cc(=O)n21 [Example 17, (3R)-6-[(1-Naphthyl)methyl]-4-oxo-7-(2-thienyl)-1-thia-3a-aza-3-indancarboxylic acid] | 25% | 38% | 100% | 50 µM | 
17 | O=C(O)c1c(-c2c[nH]nn2)sc2c(C3CC3)c(Cc3cccc4ccccc34)cc(=O)n12 [Example 18, 5-Cyclopropyl-4-[(1-naphthyl)methyl]-2-oxo-8-(1H-1,2,3-triazol-4-yl)-7-thia-1-azabicyclo[4.3.0]nona-3,5,8-triene-9-carboxylic acid] | 12% | 12% | 38% |  | 
18 | O=C(O)c1c(Cc2ccccc2)sc2c(C3CC3)c(Cc3cccc4ccccc34)cc(=O)n12 [Example 19, 8-Benzyl-5-cyclopropyl-4-[(1-naphthyl)methyl]-2-oxo-7-thia-1-azabicyclo[4.3.0]nona-3,5,8-triene-9-carboxylic acid] | 0% | 0% | 88% |  | 100%
19 | O=C(O)[C@@H]1CSc2c(C3CC3)c(Cc3cccc(Cl)c3Cl)cc(=O)n21 [Example 20, (3R)-7-Cyclopropyl-6-[(2,3-dichlorophenyl)methyl]-4-oxo-1-thia-3a-aza-3-indancarboxylic acid] | 75% | 100% | 100% | 25 µM | 
20 | NC(=O)[C@@H]1CSc2c(C3CC3)c(Cc3cccc4ccccc34)cc(=O)n21 [Example 21, (3R)-7-Cyclopropyl-6-[(1-naphthyl)methyl]-4-oxo-1-thia-3a-aza-3-indancarboxamide] | 12% | 100% | 100% |  | 
21 | O=C(NS(=O)(=O)c1ccccc1)[C@@H]1CSc2c(C3CC3)c(Cc3cccc4ccccc34)cc(=O)n21 [Example 22, {(3R)-7-Cyclopropyl-6-[(1-naphthyl)methyl]-4-oxo-1-thia-3a-aza-3-indanyl}(phenylsulfonylamino)formaldehyde] |  | 38% | 25% |  | 
22 | CC(C)c1c(Cc2cccc3ccccc23)cc(=O)n2c1SC[C@H]2C(=O)O [Example 23, (3R)-7-Isopropyl-6-[(1-naphthyl)methyl]-4-oxo-1-thia-3a-aza-3-indancarboxylic acid] |  | 12% | 50% |  | 
23 | Cc1cc(=O)n2c(c1C1CC1)SC[C@H]2C(=O)O [Example 24, (3R)-7-Cyclopropyl-6-methyl-4-oxo-1-thia-3a-aza-3-indancarboxylic acid] |  | 12% | 62% |  | 
24 | O=C(O)[C@@H]1CSc2c(C3CC3)c(Cc3ccc(Cl)cc3)cc(=O)n21 [Example 25, (3R)-6-[(p-Chlorophenyl)methyl]-7-cyclopropyl-4-oxo-1-thia-3a-aza-3-indancarboxylic acid] |  | 12% | 50% |  | 
25 | CS(=O)(=O)NC(=O)[C@@H]1CSc2c(C3CC3)c(Cc3cccc4ccccc34)cc(=O)n21 [Example 26, {(3R)-7-Cyclopropyl-6-[(1-naphthyl)methyl]-4-oxo-1-thia-3a-aza-3-indanyl}(methylsulfonylamino)formaldehyde] |  |  |  | 50 µM | 
26 | Cc1cccc(Cc2cc(=O)n3c(c2C2CC2)SC[C@H]3C(=O)O)c1 [Example 27, (3R)-7-Cyclopropyl-4-oxo-6-[(m-tolyl)methyl]-1-thia-3a-aza-3-indancarboxylic acid] | 75% | 88% | 100% | 25 µM | 
27 | Cc1cccc(CCc2cc(=O)n3c(c2C(C)C)SC[C@H]3C(=O)O)c1 [Example 28, (3R)-7-Isopropyl-4-oxo-6-[2-(m-tolyl)ethyl]-1-thia-3a-aza-3-indancarboxylic acid] |  |  |  | 50 µM | 
28 | Cn1cc(-c2c(COc3cccc4ccccc34)cc(=O)n3c2SCC3C(=O)O)c2ccccc21 (stereo not drawn) [Example 29, 7-(1-Methyl-1H-indol-3-yl)-6-[(1-naphthyloxy)methyl]-4-oxo-1-thia-3a-aza-3-indancarboxylic acid] |  |  |  | 50 µM | 
29 | O=C(O)[C@@H]1CSc2c(C3CC3)c(Cc3ccc(Br)c4ccccc34)cc(=O)n21 [Example 30, (3R)-6-[(4-Bromo-1-naphthyl)methyl]-7-cyclopropyl-4-oxo-1-thia-3a-aza-3-indancarboxylic acid] |  |  |  | 50 µM | 
